Results reported in PubChem BioAssay AID330 (DTP/NCI, 2004).
Where “and” joins values, the source holds several entries; their conditions need not be identical. Identical values can stand only once. Toxic doses and inconclusive results are not listed. The calls were made as follows: active = survival T/C of 150% or more; inactive = T/C below 125% in these data.

Test system: P388 leukemia ip, CD2F1 mice, survival T/C
Experiment: NCI In Vivo Anticancer Drug Screen. Data for tumor model P388 Leukemia (intraperitoneal) in CD2F1 (CDF1) mice
Conditions: endpoint: median survival time, higher = longer survival
Method in brief: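 Mice carrying the transplanted tumor received test compound or vehicle. Survival was recorded in each group, and the value is the treated-group measurement divided by that of the vehicle-treated control group.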

[1] = dose: 6.25 mg/kg/injection, schedule: Q01DX005 (ip), vehicle: saline with Tween-80
[2] = dose: 12.5 mg/kg/injection, schedule: Q01DX005 (ip), vehicle: saline with Tween-80
[3] = dose: 25.0 mg/kg/injection, schedule: Q01DX005 (ip), vehicle: saline with Tween-80
[4] = dose: 50.0 mg/kg/injection, schedule: Q01DX009 (ip), vehicle: saline with Tween-80
[5] = dose: 100.0 mg/kg/injection, schedule: Q01DX009 (ip), vehicle: saline with Tween-80
[6] = dose: 200.0 mg/kg/injection, schedule: Q01DX009 (ip), vehicle: saline with Tween-80
[7] = dose: 50.0 mg/kg/injection, schedule: Q01DX009 (ip), vehicle: saline
[8] = dose: 100.0 mg/kg/injection, schedule: Q01DX009 (ip), vehicle: saline
[9] = dose: 200.0 mg/kg/injection, schedule: Q01DX009 (ip), vehicle: saline
[10] = dose: 50.0 mg/kg/injection, schedule: Q01DX005 (ip), vehicle: Klucel (hydroxypropylcellulose) (HPC)
[11] = dose: 100.0 mg/kg/injection, schedule: Q01DX005 (ip), vehicle: Klucel (hydroxypropylcellulose) (HPC)
[12] = dose: 200.0 mg/kg/injection, schedule: Q01DX005 (ip), vehicle: Klucel (hydroxypropylcellulose) (HPC)
[13] = dose: 60.0 mg/kg/injection, schedule: Q01DX005 (ip), vehicle: saline with Tween-80
[14] = dose: 120.0 mg/kg/injection, schedule: Q01DX005 (ip), vehicle: saline with Tween-80

Measured: T/C

O=C(/C=C(\C(=O)c1ccccc1)c1ccccc1)c1ccccc1
inactive: dose: 50.0 mg/kg/injection, schedule: Q01DX009 (ip), vehicle: saline sonified 100 % of control | dose: 100.0 mg/kg/injection, schedule: Q01DX009 (ip), vehicle: saline sonified 100 % of control | dose: 200.0 mg/kg/injection, schedule: Q01DX009 (ip), vehicle: saline sonified 100 % of control

O=[N+]([O-])c1ccc2c(ccc3sc4ccccc4[n+]32)c1
inactive: [1] 95 % of control | [2] 108 % of control | [3] 111 % of control | dose: 50.0 mg/kg/injection, schedule: Q01DX005 (ip), vehicle: saline with Tween-80 112 % of control

Cn1/c2cc/c1=C(\c1ccccc1)c1ccc([n-]1)/C(c1ccccc1)=c1/cc/c([nH]1)=C(\c1ccccc1)c1ccc([n-]1)/C=2c1ccccc1.O.O=S(=O)(O)C(F)(F)F.[Cu+2]
inactive: dose: 12.5 mg/kg/injection, schedule: Q01DX009 (ip), vehicle: saline with Tween-80 102 % of control | dose: 25.0 mg/kg/injection, schedule: Q01DX009 (ip), vehicle: saline with Tween-80 91 % of control | dose: 50.0 mg/kg/injection, schedule: Q01DX009 (ip), vehicle: other 88 % of control | [4] 91 % of control

CSC(=S)c1c(O)ccc2ccccc12
inactive: dose: 100.0 mg/kg/injection, schedule: Q04DX002 (ip), vehicle: saline with Tween-80 102 % of control

CCCCCCCCCCCC[N+](C)(C)C (tested in a mixture with another compound)
inactive: dose: 6.25 mg/kg/injection, schedule: Q01DX009 (ip), vehicle: Klucel (hydroxypropylcellulose) (HPC) 113 % of control | dose: 12.5 mg/kg/injection, schedule: Q01DX009 (ip), vehicle: Klucel (hydroxypropylcellulose) (HPC) 114 % of control | dose: 25.0 mg/kg/injection, schedule: Q01DX009 (ip), vehicle: Klucel (hydroxypropylcellulose) (HPC) 114 % of control

Cc1ccc(NC(=O)Nc2sc(=S)c3c(c2C#N)CCCC3)c(C)c1
inactive: [4] 87 % of control | [5] 94 % of control | [6] 89 % of control

CCCCCCCCC(C(=O)N/N=C(\C)c1ccccc1)C(=O)N/N=C(\C)c1ccccc1
inactive: [7] 101 % of control | [8] 105 % of control | [9] 100 % of control

COc1ccccc1OC(C)=O
inactive: [7] 97 % of control | [9] 88 % of control

C=C=C(COC(C)=O)ON1CCCCC1
inactive: dose: 50.0 mg/kg/injection, schedule: Q01DX005 (ip), vehicle: saline 111 % of control | dose: 100.0 mg/kg/injection, schedule: Q01DX005 (ip), vehicle: saline 111 % of control

O=C1NN(c2ccccc2)C(=O)/C1=C\c1ccccc1
inactive: [4] 91 % of control | dose: 75.0 mg/kg/injection, schedule: Q01DX009 (ip), vehicle: saline with Tween-80 100 % of control | [5] 94 % of control | dose: 150.0 mg/kg/injection, schedule: Q01DX009 (ip), vehicle: saline with Tween-80 99 % of control | [6] 95 % of control | dose: 300.0 mg/kg/injection, schedule: Q01DX009 (ip), vehicle: saline with Tween-80 95 % of control | dose: 400.0 mg/kg/injection, schedule: Q01DX009 (ip), vehicle: saline with Tween-80 114 % of control | dose: 600.0 mg/kg/injection, schedule: Q01DX009 (ip), vehicle: saline with Tween-80 104 % of control

O=C(OC(CCc1ccccc1)C(=O)O)c1ccc([N+](=O)[O-])cc1 (centres undefined)
inactive: dose: 75.0 mg/kg/injection, schedule: Q01DX001 (ip), vehicle: Klucel (hydroxypropylcellulose) (HPC) 111 % of control | dose: 150.0 mg/kg/injection, schedule: Q01DX001 (ip), vehicle: Klucel (hydroxypropylcellulose) (HPC) 112 % of control | dose: 300.0 mg/kg/injection, schedule: Q01DX001 (ip), vehicle: Klucel (hydroxypropylcellulose) (HPC) 97 % of control

CS(=O)(=O)/C=C/COC(=O)/C=C/c1ccccc1
inactive: dose: 25.0 mg/kg/injection, schedule: Q01DX005 (ip), vehicle: Klucel (hydroxypropylcellulose) (HPC) 102 % of control | [10] 102 % of control | [11] 100 % of control | [12] 102 % of control

O=C(CCC(=O)C1CCCC1=O)Nc1cccc([N+](=O)[O-])c1 (centres undefined)
inactive: [13] 102 % of control | [14] 102 % of control | dose: 240.0 mg/kg/injection, schedule: Q01DX005 (ip), vehicle: saline with Tween-80 101 % of control

CCN=C(N)N=C(N)N
inactive: dose: 25.0 mg/kg/injection, schedule: Q01DX001 (ip), vehicle: saline 108 % of control | dose: 50.0 mg/kg/injection, schedule: Q01DX001 (ip), vehicle: saline 87 % of control | [7] 100 % of control | dose: 100.0 mg/kg/injection, schedule: Q01DX001 (ip), vehicle: saline 87 % of control | [8] 107 % of control | [9] 98 % of control

O=C1CC=C2C3CC4N(CCC45c4ccccc4N1C25)C/C3=C\CBr (centres undefined)
inactive: dose: 1.87 mg/kg/injection, schedule: Q01DX005 (ip), vehicle: Klucel (hydroxypropylcellulose) (HPC) 105 % of control | dose: 3.75 mg/kg/injection, schedule: Q01DX005 (ip), vehicle: Klucel (hydroxypropylcellulose) (HPC) 103 % of control | dose: 7.5 mg/kg/injection, schedule: Q01DX005 (ip), vehicle: Klucel (hydroxypropylcellulose) (HPC) 101 % of control and 105 % of control

CN(C)P(=O)(OCC12C=C(OP(=O)(N(C)C)N(C)C)CC1(COP(=O)(N(C)C)N(C)C)C1CCC2C1)N(C)C (centres undefined)
inactive: dose: 60.0 mg/kg/injection, schedule: Q01DX005 (ip), vehicle: saline 101 % of control | dose: 120.0 mg/kg/injection, schedule: Q01DX005 (ip), vehicle: saline 98 % of control | dose: 240.0 mg/kg/injection, schedule: Q01DX005 (ip), vehicle: saline 102 % of control

CC(C)(C)OC(=O)NC(CCC(=O)O)(Cc1ccccc1)C(=O)NC(CCC(=O)OCc1ccccc1)C(=O)OCc1ccccc1 (centres undefined)
inactive: [1] 98 % of control | [2] 96 % of control | [3] 105 % of control

COc1cc(C(c2cc3c(cc2O)OCO3)N2CCOCC2)ccc1O (centres undefined)
inactive: [13] 116 % of control | [14] 106 % of control

C/C=C1\CN2CCC34c5ccccc5N(C(C)=O)C3C(C=O)C1CC24 (centres undefined)
inactive: dose: 7.88 mg/kg/injection, schedule: Q01DX005 (ip), vehicle: saline + Tween-80 + alcohol 101 % of control | dose: 15.75 mg/kg/injection, schedule: Q01DX005 (ip), vehicle: saline + Tween-80 + alcohol 109 % of control | dose: 31.5 mg/kg/injection, schedule: Q01DX005 (ip), vehicle: saline + Tween-80 + alcohol 103 % of control | dose: 63.0 mg/kg/injection, schedule: Q01DX005 (ip), vehicle: saline + Tween-80 + alcohol 103 % of control

CC(=O)c1cn[nH]c1NC(=O)c1ccccc1
inactive: dose: 8.75 mg/kg/injection, schedule: Q01DX005 (ip), vehicle: Klucel (hydroxypropylcellulose) (HPC) 103 % of control | dose: 17.5 mg/kg/injection, schedule: Q01DX005 (ip), vehicle: Klucel (hydroxypropylcellulose) (HPC) 103 % of control | dose: 35.0 mg/kg/injection, schedule: Q01DX005 (ip), vehicle: Klucel (hydroxypropylcellulose) (HPC) 95 % of control

O=C(Nc1ccc2c(c1)Cc1ccccc1-2)c1cccc2ccccc12
inactive: dose: 0.75 mg/kg/injection, schedule: Q01DX005 (ip), vehicle: saline with Tween-80 96 % of control | dose: 1.5 mg/kg/injection, schedule: Q01DX005 (ip), vehicle: saline with Tween-80 96 % of control | dose: 3.0 mg/kg/injection, schedule: Q01DX005 (ip), vehicle: saline with Tween-80 89 % of control | dose: 200.0 mg/kg/injection, schedule: Q01DX005 (ip), vehicle: saline with Tween-80 90 % of control

Cc1ccc(-c2c(C)c3c(c(C)c2-c2ccc(C)cc2)-c2ccccc2C3=O)cc1
inactive: dose: 100.0 mg/kg/injection, schedule: Q04DX002 (ip), vehicle: saline 100 % of control | dose: 200.0 mg/kg/injection, schedule: Q04DX002 (ip), vehicle: saline 95 % of control

NC(Cc1ccc2c(c1)OCO2)c1ccc2c(c1)OCO2 (centres undefined)
inactive: [10] 101 % of control | [11] 99 % of control | [12] 101 % of control

CCN(CC)P(CCCCP(N(CC)CC)N(CC)CC)N(CC)CC
inactive: dose: 60.0 mg/kg/injection, schedule: Q01DX005 (ip), vehicle: Klucel (hydroxypropylcellulose) (HPC) 106 % of control | dose: 120.0 mg/kg/injection, schedule: Q01DX005 (ip), vehicle: Klucel (hydroxypropylcellulose) (HPC) 103 % of control | dose: 240.0 mg/kg/injection, schedule: Q01DX005 (ip), vehicle: Klucel (hydroxypropylcellulose) (HPC) 104 % of control
